Source: patent publication US12551482B2, “Aurora kinase inhibitors” (The Regents of the University of California, priority 2013, dated 2026)
Read-outs that look alike come from different tables or passages of the source.

What was measured:
[1] = tested on: ACN; assay: Cancer cell line profiling, Genomics of Drug Sensitivity Project; details: read-out: CD532 EC50 (uM)
[2] = tested on: MYCN; assay: Screen of Kelly MYCN-amplified cells, western blot for MYCN; assay type: cell-based; details: 1 μM, 24 hrs
Protocol: Neuroblastoma tumor cell lines were obtained from the University of California San Francisco Cell Culture Facility (Kelly, SK-N-BE2, and SH-EP). SMS-KCN, SHEP MYCN^wt and MYCN^T58A/S62A cells were obtained. All cells were grown in RPMI with 10% FBS. Neuroblastoma cells were harvested and lysed with Cell Signaling Lysis buffer+1% SDS, sonicated and supernatants boiled in LDS sample buffer (Invitrogen). Western blots were performed as described previously (Chanthery et al., 2012), with primary antibodies to MYCN (ab24193, Abcam), Histone H3, P-Histone H3 (S10), Aurora A (Cell signaling), and GAPDH (Millipore). Western blot quantitation performed with ImageJ software.
To test whether this panel of 32 putative conformation-disrupting Aurora A inhibitors would destabilize MYCN, initially Kelly MYCN-amplified neuroblastoma cells were treated with candidate inhibitors and MYCN protein was measured by western blot. Phosphorylation of Histone H3, a known substrate for Aurora A and B and a marker for mitosis, was also assessed. FIGS. 1B and 5 show decreased levels of both MYCN protein and p-Histone H3 in response to several members of the screening panel (quantitated in FIG. 1).

[3] = tested on: Hep 3B2.1-7; assay: Cancer cell line profiling, Genomics of Drug Sensitivity Project; details: read-out: CD532 EC50 (uM)
[4] = tested on: phospho-pan-Aurora; assay: Phospho-pan-Aurora by flow cytometry; assay type: cell-based; details: 1 μM, 6 hrs (FIG. 6C)
Protocol: (§1) Neuroblastoma cells were treated for the indicated time, trypsinized, washed, stained with Dylight 800 at 0.3 μg/mL (Pierce, 46421), fixed with 1.5% PFA, and permeabilized with 100% methanol. Cells were then stained with antibodies against p-MPM2 (Millipore, 16-155), p-pan-Aurora (Cell Signaling, 2914), MYCN (Thermo, PA5-17403), rabbit IgG (Invitrogen, A10542), or mouse IgG (BioLegend, 405307). Cells were stained with DAPI at 0.3 μg/mL (Invitrogen, D21490) and analyzed on the BD LSR II flow cytometer. For cell cycle analysis, cells were stimulated with EdU for 2 hours prior to harvest, then probed using the Click-iT EdU Flow Cytometry Assay Kit (Invitrogen, C10424). Cells were stained with propidium iodide (BD, 556547) and analyzed on the BD FACSCalibur flow cytometer. Data was gated using Cytobank. For viability studies, neuroblastoma cells were plated in 96-well plates at a density of 1,000 cells/well for SHEP or 4,000 cells/well for Kelly or SK—N-BE2 cells, then incubated with indicated concentrations of drug for 72 hours at 37° C. Plates were frozen at −80° C. to induce cell lysis. CyQUANT reagent mixture (Invitrogen, C7026) was added to thawed plates, then fluorescence was measured. Alternatively, resazurin (Sigma-Aldrich, R7017) was added directly to wells following drug treatment then incubated for 4 hours at 37° C. prior to measuring fluorescence. Data was analyzed using GraphPad Prism software.

[5] = tested on: SNU-5; assay: Cancer cell line profiling, Genomics of Drug Sensitivity Project; details: Homo sapiens, SNU-5, read-out: CD532 EC50 (uM)
[6] = tested on: JHH-1; assay: as above; details: JHH1, read-out: CD532 EC50 (uM)
[7] = tested on: YAPC; assay: as above; details: Homo sapiens, read-out: CD532 EC50 (uM)
[8] = tested on: Hs, 766T; assay: as above; details: Hs766T, read-out: CD532 EC50 (uM)
[9] = tested on: NUGC-3; assay: as above
[10] = tested on: Ca9-22; assay: as above; details: Homo sapiens, Ca9-22, read-out: CD532 EC50 (uM)
[11] = tested on: LOXIMVI; assay: as above
[12] = tested on: BFTC-909; assay: as above; details: Homo sapiens, BFTC-909, read-out: CD532 EC50 (uM)
[13] = tested on: IGR-37; assay: as above; details: Homo sapiens, IGR-37, read-out: CD532 EC50 (uM)
[14] = tested on: UACC-257; assay: as above; details: Homo sapiens, UACC-257, read-out: CD532 EC50 (uM)
[15] = tested on: WM-115; assay: as above; details: Homo sapiens, WM-115, read-out: CD532 EC50 (uM)
[16] = tested on: SK-HEP-1; assay: as above; details: Homo sapiens, SK-HEP1, read-out: CD532 EC50 (uM)
[17] = tested on: SNU-423; assay: as above; details: Homo sapiens, SNU-423, read-out: CD532 EC50 (uM)
[18] = tested on: Kelly MYCN-amplified neuroblastoma cells; assay: Viability at 72 hrs, CyQUANT assay; assay type: cell-based; details: FIG. 1F, read-out: cellular EC50 at 72 hrs
Protocol: as §1, with “Plates were frozen at −80° C. to induce cell lysis.” left out

[19] = tested on: HT-144; assay: Cancer cell line profiling, Genomics of Drug Sensitivity Project; details: Homo sapiens, HT-144, read-out: CD532 EC50 (uM)
[20] = tested on: RF-48; assay: as above; details: RF48, read-out: CD532 EC50 (uM)

## O=C(Nc1ccc(Nc2nccc(Nc3cc(C4CCCC4)[nH]n3)n2)cc1)Nc1cccc(C(F)(F)F)c1 [CD532, 1-(4-((4-((5-cyclopentyl-1H-pyrazol-3-yl)amino)pyrimidin-2-yl)amino)phenyl)-3-(3-(trifluoromethyl)phenyl)urea]
[1]
  EC50: 0.884 µM
[2]
  MYCN protein level: decreased levels of both MYCN and p-Histone H3 proteins
[3]
  EC50: 0.877 µM
[4]
  phospho-pan-Aurora: loss of phospho-pan-Aurora
[5]
  EC50: 2.51 µM
[6]
  EC50: 0.295 µM
[7]
  EC50: 5.34 µM
[8]
  EC50: 2.45 µM
[9]; Homo sapiens, NUGC-3, read-out: CD532 EC50 (uM), NUGC-3 cell line, Stomach
  EC50: 0.968 µM
[9]; read-out: CD532 EC50, NUGC-3 cell line, Stomach
  EC50: 1.15 µM
[10]
  EC50: 0.705 µM
[11]; Homo sapiens, LOX IMVI, read-out: CD532 EC50 (uM), LOXIMVI cell line, Skin
  EC50: 0.732 µM
[11]; read-out: CD532 EC50, LOXIMVI cell line, Skin
  EC50: 0.384 µM
[12]
  EC50: 1.51 µM
[13]
  EC50: 0.547 µM
[14]
  EC50: 0.607 µM
[15]
  EC50: 0.412 µM
[16]
  EC50: 1.6 µM
[17]
  EC50: 0.753 µM
[18]
  EC50: 147 nM
[19]
  EC50: 0.366 µM
[20]
  EC50: 0.903 µM
